# Test results taken from patent US20220023433A1, “Saponin Conjugates” (Sapreme Technologies B.V., priority 2018, published 2022).
# Columns and labels:
# breast cancer = conditions: preclinical models of breast cancer; cited from earlier work
# HeLa cells = test: Cell viability assay (MTS): co-administration with SO1861 and dianthin-EGF, inhibition of SO1861-mediated endosomal escape; format: cell-based, human; conditions: 500 nM test substance + SO1861 concentration curve + […] dianthin-EGF, 72 hr
# Experimental: HeLa cells were seeded in DMEM (PAN-Biotech GmbH) supplemented with 10% fetal bovine serum (PAN-Biotech GmbH) and 1% penicillin/streptomycin (PAN-Biotech GmbH), in a 96 well plate at 5,000 c/w in 100 μL/well and incubated overnight at 37° C. and 5% CO2. The next day 20× concentrated stocks of the PAMAM, PAMAM-conjugates, G4-dendron (prepared in Example 3) or chloroquine (Sigma Aldrich) samples were prepared in DMEM. The media was removed from the cell culture plate and replaced by […] culture media, followed by the addition of 10 μL sample/well (from the 20× concentrated stocks) and a 45 min incubation at 37° C. […] Followed by 15 sec sonication and a brief re-heating at 50° C. for 1 min, while shaking at 1,250 rpm. Subsequently a serial dilution of SO1861 was prepared in PBS.
# As control for the inhibition of endosomal acidification chloroquine was used.
# [1] = pH dependent hydrolysis of the hydrazone bond followed by MALDI-TOF-MS; format: physicochemical; conditions: HCl solution at pH 3; MALDI-TOF-MS at two points in time
compound,measurement,setting,value
ado-trastuzumab emtansine,dose levels inducing tumor regression,breast cancer,≥ 3 mg/kg
CCN(CC)CCCC(C)Nc1ccnc2cc(Cl)ccc12 (stereo not drawn) [chloroquine],inhibition of SO1861-mediated endosomal escape of the targeted toxin and subsequent cell killing,HeLa cells,inhibit the SO1861-mediated endosomal escape of the targeted toxin and subsequent cell killing
CC(=O)OC1C(C)OC(OC2C(C)OC(OC(=O)[C@]34CCC(C)(C)CC3C3=CCC5[C@@]6(C)CC[C@H](OC7OC(C(=O)O)C(O)C(OC8OCC(O)C(O)C8O)C7OC7OC(CO)C(O)C(O)C7O)[C@@](C)(/C=N/NC(=O)CCCCCN7C(=O)C=CC7=O)C6CC[C@@]5(C)[C@]3(C)C[C@H]4O)C(OC3OC(C)C(OC4OCC(O)C(OC5OC(CO)C(O)C(O)C5O)C4O)C(O)C3O)C2O)C(O)C1OC1OCC(O)C(O)C1O (stereo partly drawn) [SO1861-EMCH],hydrolysis of the hydrazone bond,[1],the hydrazone bond is responsive towards hydrolysis and gets cleaved
